# According to patent publication US4766046A, “Stabilized liposome/amphotericin composition and method” (priority 1985, dated 1988):
# “Also recorded” adds a separate entry of the source.
# Legend:
# [1] = system: fungal infections; details: cited from earlier work
# [2] = free form; cited from earlier work
# [3] = cited from earlier work
# [4] = Description: The MLVs which formed were diluted, concentrated by ultrafiltration, and extruded successively through 0.4 and 0.2 micron polycarbonate membranes, as in Example II.
# Liposomes were prepared from mixture #1 lipids and 3.5 mole percent AMB, with hydration in either PBS, or in a Tris--HCl buffer containing 5% w/v of one of the following sugars: glucose, mannitol, trehalose, sucrose, lactose, or maltodextrin. The MLVs formed on hydration with the selected aqueous medium were extruded successively through 0.4 and 0.2 micron polycarbonate membranes, diluted with the selected medium, and concentrated to the original volume, according to Example I. The liposome suspensions were frozen against a dry ice/isopropanol mixture and lyophilized at a pressure of about 15 mTorr. The lyophilized material was stored under nitrogen at refrigerator temperature until used, typically at least about 12 hours.
# Following storage, each of the lyophilized liposome preparations was resuspended to its prelyophilization volume by addition of distilled water. The samples were agitated briefly to facilitate resuspension, and resuspended samples were examined for liposome size distribution, as above.
structure (smiles),measurement,setting,value
"C[C@@H]1[C@H](O)[C@@H](C)/C=C/C=C/C=C/C=C/C=C/C=C/C=C/[C@H](O[C@@H]2O[C@H](C)[C@@H](O)[C@H](N)[C@@H]2O)C[C@@H]2O[C@](O)(C[C@@H](O)C[C@@H](O)[C@H](O)CC[C@@H](O)C[C@@H](O)CC(=O)O[C@H]1C)C[C@H](O)[C@H]2C(=O)O [AMB, Amphotericin B]","antifungal activity, in words",[1],effective antifungal agent
same,side effects of free AMB,[2],"side effects resulting from red blood cell disruption are observed initially, followed by more serious cardiotoxicity effects; also recorded: Renal toxicity"
same,LD50,[3]; earlier studies (references 2-12),2 to 3 mg/kg
OC[C@H]1O[C@@](CO)(O[C@H]2O[C@H](CO)[C@@H](O)[C@H](O)[C@H]2O)[C@@H](O)[C@@H]1O [sucrose],size stabilization on dehydration and rehydration,[4],good size stabilization
CC(C)[C@@H](C)/C=C/[C@@H](C)[C@H]1CC[C@H]2C3=CC=C4C[C@@H](O)CC[C@]4(C)[C@H]3CC[C@]12C [Ergosterol],protective effect in liposomes,[3]; compared with cholesterol (reference 12),greater protective effect than cholesterol in liposomes
O=C[C@H](O)[C@@H](O)[C@H](O)[C@H](O)CO [glucose],size stabilization on dehydration and rehydration,[4],good size stabilization
